Values joined by “and” are separate entries in the source; they are usually repeats but may differ in a detail not shown here. Equal entries are not always repeated. Inconclusive results and toxic doses are left out.
Tested on: L1210 leukemia ip in BDF1 mice, survival T/C
Experiment: NCI In Vivo Anticancer Drug Screen. Data for tumor model L1210 Leukemia (intraperitoneal) in B6D2F1 (BDF1) mice
Settings: endpoint: mean survival time, higher = longer survival
Outline: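 Mice bearing the transplanted tumor received compound or vehicle. Survival of the treated group was divided by that of the vehicle-treated control group to give the ratio.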

[1] = dose: 50.0 mg/kg/injection, schedule: Q04DX003 (ip), vehicle: saline
[2] = dose: 100.0 mg/kg/injection, schedule: Q04DX003 (ip), vehicle: saline
[3] = dose: 200.0 mg/kg/injection, schedule: Q04DX003 (ip), vehicle: saline
[4] = dose: 25.0 mg/kg/injection, schedule: Q04DX003 (ip), vehicle: saline
[5] = dose: 100.0 mg/kg/injection, schedule: Q01DX001 (ip), vehicle: Klucel (hydroxypropylcellulose) (HPC)

In the case of `Cc1cc([NH-])c([NH-])cc1C.[Cl][Pt+2][Cl]`, the T/C (dose: 18.0 mg/kg/injection, schedule: Q01DX009 (ip), vehicle: water) is reported as 150 % of control, the T/C (dose: 25.0 mg/kg/injection, schedule: Q01DX009 (ip), vehicle: other) is reported as 119 % of control and the T/C (dose: 50.0 mg/kg/injection, schedule: Q04DX003 (ip), vehicle: other) is reported as 104 % of control. For the same compound, the T/C [1] was 112 % of control and 119 % of control, the T/C (dose: 100.0 mg/kg/injection, schedule: Q04DX003 (ip), vehicle: other) was 119 % of control and the T/C [2] was 107 % of control and 113 % of control. The T/C [3] was 93 % of control.
`CCN(CC)CCn1c2ccccc2c2cnccc21` was tested, and the T/C [4] was 100 % of control and the T/C [1] was 97 % of control.
`Nc1cccc(OCCCOc2ccccc2)c1` was tested, and the T/C [5] was 94 % of control, the T/C (dose: 200.0 mg/kg/injection, schedule: Q01DX001 (ip), vehicle: Klucel (hydroxypropylcellulose) (HPC)) was 97 % of control and the T/C (dose: 400.0 mg/kg/injection, schedule: Q01DX001 (ip), vehicle: Klucel (hydroxypropylcellulose) (HPC)) was 94 % of control.
In the case of `CCOc1ccccc1NC(=O)Nc1ccccc1C(F)(F)F`, the T/C (dose: 100.0 mg/kg/injection, schedule: Q01DX009 (ip), vehicle: Klucel (hydroxypropylcellulose) (HPC)) is reported as 94 % of control, the T/C (dose: 200.0 mg/kg/injection, schedule: Q01DX009 (ip), vehicle: Klucel (hydroxypropylcellulose) (HPC)) is reported as 96 % of control and the T/C (dose: 400.0 mg/kg/injection, schedule: Q01DX009 (ip), vehicle: Klucel (hydroxypropylcellulose) (HPC)) is reported as 91 % of control.
In the case of `O=C(C[P+](c1ccccc1)(c1ccccc1)c1ccccc1)c1ccccc1`, the T/C (dose: 75.0 mg/kg/injection, schedule: Q01DX001 (ip), vehicle: carboxymethylcellulose (CMC)) is reported as 92 % of control, the T/C [5] is reported as 97 % of control and the T/C (dose: 150.0 mg/kg/injection, schedule: Q01DX001 (ip), vehicle: carboxymethylcellulose (CMC)) is reported as 97 % of control. For the same compound, the T/C (dose: 300.0 mg/kg/injection, schedule: Q01DX001 (ip), vehicle: carboxymethylcellulose (CMC)) was 92 % of control.
For `CC1NCCOC1c1ccccc1` (configuration not stated), the T/C (dose: 12.5 mg/kg/injection, schedule: Q01DX009 (ip), vehicle: saline) was 93 % of control, the T/C (dose: 25.0 mg/kg/injection, schedule: Q01DX009 (ip), vehicle: saline) was 108 % of control and 92 % of control and the T/C [4] was 114 % of control. For the same compound, the T/C (dose: 50.0 mg/kg/injection, schedule: Q01DX009 (ip), vehicle: saline) was 100 % of control and 108 % of control, the T/C [1] was 103 % of control and the T/C (dose: 100.0 mg/kg/injection, schedule: Q01DX009 (ip), vehicle: saline) was 106 % of control. For the same compound, the T/C [2] was 100 % of control and the T/C [3] was 88 % of control.
For `N=C(N)C1CCCCC1`, the T/C (dose: 100.0 mg/kg/injection, schedule: Q01DX001 (ip), vehicle: saline) was 95 % of control, the T/C (dose: 200.0 mg/kg/injection, schedule: Q01DX001 (ip), vehicle: saline) was 97 % of control and the T/C (dose: 400.0 mg/kg/injection, schedule: Q01DX001 (ip), vehicle: saline) was 100 % of control.
`CC(=O)C1(O)CCC2C3CC=C4CC(O)CCC4(C)C3CCC21C` (configuration not stated) was tested, and the T/C (dose: 100.0 mg/kg/injection, schedule: Q01DX001 (ip), vehicle: carboxymethylcellulose (CMC)) was 102 % of control, the T/C (dose: 100.0 mg/kg/injection, schedule: Q01DX009 (ip), vehicle: carboxymethylcellulose (CMC)) was 87 % of control and 90 % of control and the T/C (dose: 100.0 mg/kg/injection, schedule: Q04DX002 (ip), vehicle: carboxymethylcellulose (CMC)) was 98 % of control and 100 % of control. For the same compound, the T/C (dose: 100.0 mg/kg/injection, schedule: Q04DX003 (ip), vehicle: carboxymethylcellulose (CMC)) was 97 % of control, the T/C (dose: 200.0 mg/kg/injection, schedule: Q01DX001 (ip), vehicle: carboxymethylcellulose (CMC)) was 94 % of control and the T/C (dose: 200.0 mg/kg/injection, schedule: Q01DX009 (ip), vehicle: carboxymethylcellulose (CMC)) was 96 % of control and 97 % of control. For the same compound, the T/C (dose: 200.0 mg/kg/injection, schedule: Q04DX002 (ip), vehicle: carboxymethylcellulose (CMC)) was 100 % of control and 110 % of control, the T/C (dose: 200.0 mg/kg/injection, schedule: Q04DX003 (ip), vehicle: carboxymethylcellulose (CMC)) was 98 % of control and the T/C (dose: 400.0 mg/kg/injection, schedule: Q01DX001 (ip), vehicle: carboxymethylcellulose (CMC)) was 98 % of control. The T/C (dose: 400.0 mg/kg/injection, schedule: Q01DX009 (ip), vehicle: carboxymethylcellulose (CMC)) was 93 % of control and 94 % of control, the T/C (dose: 400.0 mg/kg/injection, schedule: Q04DX002 (ip), vehicle: carboxymethylcellulose (CMC)) was 97 % of control and 100 % of control and the T/C (dose: 400.0 mg/kg/injection, schedule: Q04DX003 (ip), vehicle: carboxymethylcellulose (CMC)) was 88 % of control.
For `O=C(CNC(=O)c1ccccc1)N/N=C/c1cccc([N+](=O)[O-])c1`, the T/C (dose: 25.0 mg/kg/injection, schedule: Q01DX009 (ip), vehicle: saline with Tween-80) was 95 % of control, the T/C (dose: 50.0 mg/kg/injection, schedule: Q01DX009 (ip), vehicle: saline with Tween-80) was 90 % of control and the T/C (dose: 100.0 mg/kg/injection, schedule: Q01DX009 (ip), vehicle: saline with Tween-80) was 88 % of control.
`CC(C)(NC(=O)N(CCCl)N=O)C(=O)O` was tested, and the T/C (dose: 15.0 mg/kg/injection, schedule: Q01DX001 (ip), vehicle: saline with Tween-80) was 103 % of control, the T/C (dose: 23.0 mg/kg/injection, schedule: Q01DX001 (ip), vehicle: saline with Tween-80) was 115 % of control and the T/C (dose: 36.0 mg/kg/injection, schedule: Q01DX001 (ip), vehicle: saline with Tween-80) was 119 % of control. For the same compound, the T/C (dose: 119.0 mg/kg/injection, schedule: Q01DX001 (ip), vehicle: saline with Tween-80) was 227 % of control, the T/C (dose: 178.0 mg/kg/injection, schedule: Q01DX001 (ip), vehicle: saline with Tween-80) was 339 % of control and the T/C (dose: 266.0 mg/kg/injection, schedule: Q01DX001 (ip), vehicle: saline with Tween-80) was 123 % of control. For the same compound, the T/C (dose: 400.0 mg/kg/injection, schedule: Q01DX001 (ip), vehicle: saline with Tween-80) was 352 % of control.
